Experiments:
[1] = system: OVMIU (Ovarian Carcinoma); assay: combination Emax (second highest fraction inhibited in the dose matrix, 72 h); higher = more inhibition; extreme values may be limits of the assay
Procedure, shortened: (§1)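 Bliss excess equals the observed combination effect minus the expected value EA + EB − EA·EB, where EA and EB are the effects of each agent alone. Combination Emax is the second-highest inhibition within the matrix. Inhibition was scaled from CellTiter-Glo 2.0 luminescence, with 0 set by vehicle wells and 1 by blank wells, after 72 hours of two-drug dosing of cells plated in 1536-well plates.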

[2] = system: RKN (Other Solid Carcinomas); assay: as above
Procedure, shortened: as §1

[3] = system: CAL-120 (Breast Carcinoma); assay: as above
Procedure, shortened: as §1

[4] = system: 23132-87 (Gastric Carcinoma); assay: as above
Procedure, shortened: as §1

[5] = system: REH (B-Lymphoblastic Leukemia); assay: as above
Procedure, shortened: as §1

[6] = system: MFE-280 (Endometrial Carcinoma); assay: as above
Procedure, shortened: as §1

[7] = system: TE-8 (Esophageal Squamous Cell Carcinoma); assay: as above
Procedure, shortened: as §1

[8] = system: A2058 (Melanoma); assay: as above
Procedure, shortened: as §1

[9] = system: MKN45 (Gastric Carcinoma); assay: as above
Procedure, shortened: as §1

[10] = system: SHP-77 (Small Cell Lung Carcinoma); assay: as above
Procedure, shortened: as §1

[11] = system: WM793B (Melanoma); assay: as above
Procedure, shortened: as §1

[12] = system: COLO-680N (Esophageal Squamous Cell Carcinoma); assay: as above
Procedure, shortened: as §1

[13] = system: SU-DHL-10 (B-Cell Non-Hodgkin's Lymphoma); assay: as above
Procedure, shortened: as §1

[14] = system: IST-MES1 (Mesothelioma); assay: as above
Procedure, shortened: as §1

[15] = system: WM278 (Melanoma); assay: as above
Procedure, shortened: as §1

[16] = system: CAL-62 (Thyroid Gland Carcinoma); assay: as above
Procedure, shortened: as §1

[17] = system: RERF-LC-Sq1 (Squamous Cell Lung Carcinoma); assay: as above
Procedure, shortened: as §1

[18] = system: RKN (Other Solid Carcinomas); assay: Bliss excess, mean over the matrix (fraction); higher = more synergy
Procedure, shortened: as §1

[19] = system: SF539 (Glioblastoma); assay: as above
Procedure, shortened: as §1

[20] = system: PANC-03-27 (Pancreatic Carcinoma); assay: as above
Procedure, shortened: as §1

| SMILES | combination Emax [1] | combination Emax [2] | combination Emax [3] | combination Emax [4] | combination Emax [5] | combination Emax [6] | combination Emax [7] | combination Emax [8] | combination Emax [9] | combination Emax [10] | combination Emax [11] | combination Emax [12] | combination Emax [13] | combination Emax [14] | combination Emax [15] | combination Emax [16] | combination Emax [17] | Bliss excess [18] | Bliss excess [19] | Bliss excess [20] |
| --- | --- | --- | --- | --- | --- | --- | --- | --- | --- | --- | --- | --- | --- | --- | --- | --- | --- | --- | --- | --- |
| COc1cccc(OCCCN)c1-c1cc(Nc2cnc(C#N)cn2)n[nH]1 [Prexasertib] + CN(C)CCCOc1ccc(-c2ccc3ncc4c(c3c2)n(C2CCOCC2)c(=O)n4C)cn1 [AZD0156] (first compound max 1 µM, 7x7, partner max 1 µM) | 0.684 | 0.67 | 0.456 | 0.926 | 0.994 | 0.441 | 0.914 | 0.391 | 0.836 | 0.829 | 0.903 | 0.414 | 0.999 | 0.218 | 0.574 | 0.735 | 0.864 | -0.0478 | -0.0339 | -0.0704 |
| COc1cccc(OCCCN)c1-c1cc(Nc2cnc(C#N)cn2)n[nH]1 [Prexasertib] + C[C@@H]1COCCN1C2=NC(=NC(=C2)C3(CC3)[S@](=N)(=O)C)C4=C5C=CNC5=NC=C4 [AZD6738] (first compound max 1 µM, 7x7, partner max 10 µM) | 0.596 | 0.577 | 0.446 | 0.908 | 1 | 0.398 | 0.933 | 0.436 | 0.822 | 0.836 | 0.907 | 0.416 | 1 | 0.278 | 0.569 | 0.785 | 0.899 | -0.027 | -0.0046 | -0.0577 |
| COc1cccc(OCCCN)c1-c1cc(Nc2cnc(C#N)cn2)n[nH]1 [Prexasertib] + Cc1cc2ncnn2cc1Nc1ncc2c(n1)n(C1CCOCC1)c(=O)n2C [AZD7648] (first compound max 1 µM, 7x7, partner max 10 µM) | 0.624 | 0.658 | 0.512 | 0.939 | 0.992 | 0.405 | 0.937 | 0.444 | 0.811 | 0.862 | 0.866 | 0.37 | 0.999 | 0.355 | 0.596 | 0.776 | 0.855 | -0.0293 | 0.014 | -0.0606 |
| COc1cccc(OCCCN)c1-c1cc(Nc2cnc(C#N)cn2)n[nH]1 [Prexasertib] + O=C(c1cc(Cc2n[nH]c(=O)c3ccccc23)ccc1F)N1CCN(C(=O)C2CC2)CC1 [Olaparib] (first compound max 1 µM, 7x7, partner max 10 µM) | 0.592 | 0.678 | 0.526 | 0.87 | 0.987 | 0.416 | 0.902 | 0.508 | 0.854 | 0.819 | 0.873 | 0.342 | 1 | 0.283 | 0.627 | 0.779 | 0.833 | -0.0958 | 0.0007 | -0.0102 |
| COc1cc2c(cc1OCCCCCOc1cc3c(cc1OC)C(=O)N1C=C(C)C[C@H]1C=N3)N=C[C@@H]1CC(C)=CN1C2=O [SG3199] + O=C(c1cc(Cc2n[nH]c(=O)c3ccccc23)ccc1F)N1CCN(C(=O)C2CC2)CC1 [Olaparib] (first compound max 0.001 µM, 7x7, partner max 10 µM) | 0.0896 | 0.0618 | 0.142 | 0.3 | 0.197 | 0.184 | 0.109 | 0.141 | 0.0741 | 0.223 | 0.194 | 0.0893 | 0.23 | 0.218 | 0.0771 | 0.102 | 0.129 | -0.0377 | -0.0049 | -0.062 |
| CCc1c2c(nc3ccc(O)cc13)-c1cc3c(c(=O)n1C2)COC(=O)[C@]3(O)CC [SN-38] + CN(C)CCCOc1ccc(-c2ccc3ncc4c(c3c2)n(C2CCOCC2)c(=O)n4C)cn1 [AZD0156] (first compound max 0.3 µM, 7x7, partner max 1 µM) | 0.32 | 0.631 | 0.381 | 0.845 | 1 | 0.611 | 0.69 | 0.401 | 0.815 | 0.48 | 0.85 | 0.412 | 0.986 | 0.875 | 0.635 | 0.872 | 0.743 | 0.0057 | 0.0216 | -0.0071 |
| C[C@@H](c1ccc2nccn2c1)n1nnc2ncc(-c3cnn(C)c3)nc21 [Savolitinib] + CC1(C)CCC(CN2CCN(c3ccc(C(=O)NS(=O)(=O)c4ccc(NCC5CCOCC5)c([N+](=O)[O-])c4)c(Oc4cnc5[nH]ccc5c4)c3)CC2)=C(c2ccc(Cl)cc2)C1 [Venetoclax] (first compound max 1 µM, 7x7, partner max 1 µM) | 0.284 | 0.195 | 0.0877 | 0.147 | 0.608 | 0.186 | 0.229 | 0.107 | 0.831 | 0.314 | 0.137 | 0.211 | 0.0782 | 0.198 | 0.102 | 0.142 | 0.167 | -0.0529 | -0.0697 | -0.0176 |
| C[C@@H](c1ccc2nccn2c1)n1nnc2ncc(-c3cnn(C)c3)nc21 [Savolitinib] + Cc1c2c(nn1C)CSCc1cc(n(C)n1)CSc1cc(c3ccccc3c1)OCCCc1c(C(=O)O)n(C)c3c-2c(Cl)ccc13 [AZD5991] (first compound max 1 µM, 7x7, partner max 1 µM) | 0.114 | 0.117 | 0.112 | 0.179 | 0.806 | 0.116 | 0.323 | 0.36 | 0.839 | 0.34 | 0.168 | 0.183 | 1 | 0.189 | 0.15 | 0.131 | 0.173 | -0.0706 | -0.0337 | -0.0541 |
| Cn1cnc2c(F)c(Nc3ccc(Br)cc3Cl)c(C(=O)NOCCO)cc21 [Selumetinib] + C=CCn1c(=O)c2cnc(Nc3ccc(N4CCN(C)CC4)cc3)nc2n1-c1cccc(C(C)(C)O)n1 [AZD1775] (first compound max 10 µM, partner max 1 µM) | 0.498 | 0.42 | 0.326 | 0.275 | 0.62 | 0.212 | 0.57 | 0.685 | 0.8 | 0.35 | 0.534 | 0.181 | 0.98 | 0.189 | 0.641 | 0.607 | 0.666 | -0.0397 | -0.025 | -0.0164 |
| Cn1cnc2c(F)c(Nc3ccc(Br)cc3Cl)c(C(=O)NOCCO)cc21 [Selumetinib] + CC(C)n1c(=O)n(C)c2cnc3cc(F)c(-c4ccc(OCCCN5CCCCC5)nc4)cc3c21 [AZD1390] (first compound max 10 µM, 7x7, partner max 0.3 µM) | 0.402 | 0.379 | 0.112 | 0.0937 | 0.0781 | 0.17 | 0.546 | 0.426 | 0.61 | 0.15 | 0.503 | 0.143 | 0.0401 | 0.183 | 0.841 | 0.219 | 0.402 | 0.0378 | -0.0232 | 0.01 |
| Cn1cnc2c(F)c(Nc3ccc(Br)cc3Cl)c(C(=O)NOCCO)cc21 [Selumetinib] + CCN(CCO)CCCOc1ccc2c(Nc3cc(CC(=O)Nc4cccc(F)c4)[nH]n3)ncnc2c1 [AZD2811] (first compound max 10 µM, 7x7, partner max 1 µM) | 0.407 | 0.352 | 0.188 | 0.104 | 0.604 | 0.161 | 0.347 | 0.649 | 0.674 | 0.362 | 0.528 | 0.188 | 0.738 | 0.269 | 0.581 | 0.291 | 0.535 | -0.0232 | -0.0193 | 0.0374 |
| Cn1cnc2c(F)c(Nc3ccc(Br)cc3Cl)c(C(=O)NOCCO)cc21 [Selumetinib] + C[C@@H]1COCCN1C2=NC(=NC(=C2)C3(CC3)[S@](=N)(=O)C)C4=C5C=CNC5=NC=C4 [AZD6738] (first compound max 10 µM, 7x7, partner max 10 µM) | 0.476 | 0.45 | 0.436 | 0.429 | 0.684 | 0.151 | 0.495 | 0.83 | 0.782 | 0.569 | 0.703 | 0.203 | 0.911 | 0.269 | 0.587 | 0.672 | 0.786 | 0.0584 | 0.0586 | -0.0117 |
| CC(=O)Nc1cccc(-n2c(=O)n(C3CC3)c(=O)c3c(Nc4ccc(I)cc4F)n(C)c(=O)c(C)c32)c1 [Trametinib] + Cc1nc(-c2cn3c(n2)-c2ccc(-c4cnn(C(C)(C)C(N)=O)c4)cc2OCC3)n(C(C)C)n1 [Taselisib] (first compound max 1 µM, 7x7, partner max 10 µM) | 0.973 | 0.544 | 0.564 | 0.636 | 0.544 | 0.939 | 0.782 | 1 | 0.799 | 0.459 | 0.855 | 0.501 | 0.977 | 0.434 | 0.983 | 0.765 | 0.981 | 0.124 | 0.177 | 0.156 |
